Type in all cases: physicochemical
Data set [1] in a line: Methotrexate release from PCL discs. The following applies: high MePEG concentrations. On the procedure: A known weight of a polymer (typically a 2.5 mg pellet) is added to a 15 ml test tube containing 14 ml of a buffer containing 10 mm Na2 HPO4 --NaH2 PO4, 0.145 m NaCl and 0.4 g/l bovine serum albumin. The tubes are capped and tumbled at 37° C. At specific times all the 14 ml of the liquid buffer are removed and replaced with fresh liquid buffer.
The aqueous phase is then removed and the methylene chloride phase is dried under nitrogen. The residue is then dissolved in 60% acetonitrile: 40% water and the solution is injected on to a HPLC system using the following conditions: C8 column (Beckman Instruments USA), mobile phase of 58%:5%:37% acetonitrile: methanol: water at a flow rate of […].
For MTX the collected buffer is applied directly to the HPLC column with no need for extraction in methylene chloride. MTX is analyzed at 302 nm. For Vanadium containing compounds the liquid buffer is analyzed directly using a UV/VIS spectrometer in the 200 to 300 nm range.
Methotrexate ("MTX"; Sigma Chemical Co.) is ground in a pestle and mortar to reduce the particle size to below 5 microns. It is then mixed as a dry powder with polycaprolactone (molecular wt 18000 Birmingham Polymers, Ala. USA). The mixture is heated to 65° C. for 5 minutes and the molten polymer/methotrexate mixture is stirred into a smooth paste for 5 minutes. […]

Data set [2] is described as follows: Vanadyl sulfate release from PCL. On the procedure:
Vanadyl Sulfate (Fisher Scientific) is first ground in a pestle and mortar to reduce the particle size, then dispersed into melted PCL as described above for MTX. It is then taken up into a syringe to solidify and is ready for use.
Drug release was determined essentially as described above in Example 33, except that a 65 mg pellet of a 10% w/w VOSO4 :PCL was suspended in 10 ml of water and the supernatant analyzed for released Vanadyl Sulphate using UV/Vis absorbance spectroscopy of the peak in the 200 to 300 nm range.

A short description of data set [3]: Encapsulation of sodium suramin in ELVAX microspheres. On the procedure: One milliliter of 5% ELVAX (poly(ethylene-vinyl acetate) cross-linked with 5% vinyl acetate) in dichloromethane ("DCM") is mixed with a fixed weight of sub-micron ground sodium suramin. This mixture is injected into 5 ml of 5% Polyvinyl Alcohol ("PVA") in water in a 30 ml flat bottomed test tube. Tubes containing different weights of the drug are then suspended in a multi-sample water bath at 40° for 90 minutes with automated stirring. The mixtures are removed, and microsphere samples taken for size analysis. Tubes are centrifuged at 1000 g for 5 min. The PVA supernatant is removed and saved for analysis (nonencapsulated drug). The microspheres are then washed (vortexed) in 5 ml of water and recentrifuged. The 5 ml wash is saved for analysis (surface bound drug). Microspheres are then wetted in 50 μl of methanol, and vortexed in 1 ml of DCM to dissolve the ELVAX. The microspheres are then warmed to 40° C., and 5 ml of 50° C. water is slowly added with stirring. This procedure results in the immediate evaporation of DCM, thereby causing the release of sodium suramin into the 5 ml of water.
All samples were assayed for drug content by quantification of fluorescence. Briefly, sodium suramin absorbs uv/vis with a lambda max of 312 nm. This absorption is linear in the 0 to 100 μg/ml range in both water and 5% PVA. […] This fluorescence is quantifiable in the 0 to 25 μg/ml range.

Where only a bound is given, the exact number is not on record here.

In the case of `CN(Cc1cnc2nc(N)nc(N)c2n1)c1ccc(C(=O)N[C@@H](CCC(=O)O)C(=O)O)cc1` [MTX], the MTX release entry in data set [1] is “substantial amounts of MTX can be released from the polymer”.

As to `O=S(=O)([O-])[O-].[O]=[V+2]` [VOSO4, vanadyl sulfate], the VOSO4 released in data set [2] (6 hours, 65 mg pellet 10% w/w in water) is 1 mg; in data set [2] (2 days, 65 mg pellet 10% w/w in water), 3 mg; in data set [2] (day 6, 65 mg pellet 10% w/w in water) it was 5 mg.

Take `Cc1ccc(C(=O)Nc2ccc(S(=O)(=O)O)c3cc(S(=O)(=O)O)cc(S(=O)(=O)O)c23)cc1NC(=O)c1cccc(NC(=O)Nc2cccc(C(=O)Nc3cc(C(=O)Nc4ccc(S(=O)(=O)O)c5cc(S(=O)(=O)O)cc(S(=O)(=O)O)c45)ccc3C)c2)c1` [suramin]: in data set [3] (50 mg ELVAX), the “drug encapsulated in 50 mg of ELVAX” value was 50 µg. Moreover, the “% encapsulation” value in data set [3] (ELVAX microspheres) is recorded as under 1%.
